Measurements published in patent US20250283896A1, “PROBES AND METHODS FOR TARGETED VISUALIZATION OF NLRP3 INFLAMMASOMES” (VANDERBILT UNIVERSITY, priority 2022, published 2025).

Columns and labels:
NLRP3 = NLRP3 (Mus musculus, UniProt Q8R4B8); settings: murine model, literature; cited from earlier work
NLRP3 inflammasome = molecular target: T1, NLRP3 inflammasome (Mus musculus, UniProt Q8R4B8); experiment: Inhibition assay of IL-1β (ELISA) in LPS-primed and nigericin-stimulated BMDMs; type: cell-based, murine
T1 construct: InflammaProbe-1 could selectively stain macrophages that have been induced to express NLRP3; host or cells: primary C57BL/6 mouse bone marrow-derived macrophages (BMDM)
Experimental: (§1) Cell culture: Bone marrow-derived macrophages (BMDM), isolated from adult C57BL/6 mouse bone marrow, were purchased from ScienCell Research Laboratories (Carlsbad, CA) and cultured in ScienCell's phenol red-free Macrophage Medium (MaM) supplemented with 5% fetal bovine serum (FBS), Macrophage Growth Supplement (MaGS), and 1% Penicillin-Streptomycin (Pen, 100 U/mL; Strep, 100 μg/mL). Mouse Primary Retinal Microvascular Endothelial Cells (MRMEC), isolated from C57BL/6 mice, were purchased from Cell Biologics Inc. (Chicago, IL) and cultured in Cell Biologics' phenol red-free Endothelial Cell Medium supplemented with 0.1% VEGF, 0.1% Heparin, 0.1% EGF, 0.1% ECGS, 0.1% Hydrocortisone, 2 mM L-Glutamine, and 1% Antibiotic-Antimycotic. The medium was additionally supplemented with 10% FBS (R&D Systems, Minneapolis, MN). BMDMs and MRMECs were incubated at 37° C., 5% CO2, and 95% relative humidity.
(§2) Inhibition assay of IL-1β and TNF-α: BMDMs were seeded in 12-well plates at a density of 5×10^4 cells per well. After an overnight incubation, the cells were primed with 50 ng/mL LPS for 3 h, treated with 1 to 10 µM InflammaProbe-1 or CY-09 for 1 h, and stimulated with 10 μM nigericin for another hour to induce NLRP3 activation, as described in the literature. Cell culture supernatants were assayed for mouse IL-1β and TNF-α by performing enzyme-linked immunosorbent assays (ELISA; Invitrogen, Waltham, MA) in accordance with the manufacturer's instructions. The data were expressed as the mean±SD of 3 replicates per group.

TNF-α = experiment: Off-target assay of LPS-induced TNF-α secretion (ELISA) in BMDMs; type: cell-based, murine; settings: 10 μM; in comparison to InflammaProbe-1, p<0.05
Experimental: as §1
as §2, with “Cell culture supernatants were assayed for mouse IL-1β and TNF-α by performing enzyme-linked immunosorbent assays (ELISA; Invitrogen, Waltham, MA) in accordance with the manufacturer's instructions.” left out

[1] = test system: primary mouse retinal microvascular endothelial cells (MRMEC); experiment: Cell viability assay with Calcein Deep Red AM ester; type: cell-based; settings: 20 h, 70% ethanol in water; p<0.01
Experimental: Cell culture: Bone marrow-derived macrophages (BMDM), isolated from adult C57BL/6 mouse bone marrow, were purchased from ScienCell Research Laboratories (Carlsbad, CA) and cultured in ScienCell's phenol red-free Macrophage Medium (MaM) supplemented with 5% fetal bovine serum (FBS), Macrophage Growth Supplement (MaGS), and 1% Penicillin-Streptomycin (Pen, 100 U/mL; Strep, 100 μg/mL). Mouse Primary Retinal Microvascular Endothelial Cells (MRMEC), isolated from C57BL/6 mice, were purchased from Cell Biologics Inc. […] The medium was additionally supplemented with 10% FBS (R&D Systems, Minneapolis, MN). BMDMs and […] were incubated at 37° C., 5% CO2, and 95% relative humidity. Cell viability assay: […] (Passage 4) were seeded on sterile black 96-well plates in complete medium at a density of 1.5×10^4 cells per well. […] This fluorescent compound is redshifted relative to […]=510/540 nm), which is necessary to avoid interference from any InflammaProbe-1-dependent fluorescence during fluorometric measurements. […] Finally, fluorometric measurements were performed at ex/em=620/660 nm using the Cytation 5 microplate reader (BioTek Instruments, Inc., Winooski, VT). Fluorescence intensities were plotted as the percentage of cell viability relative to the control group. The data were expressed as the mean±SD of 6 replicates per group.

T1 sequence (Q8R4B8 whole entry): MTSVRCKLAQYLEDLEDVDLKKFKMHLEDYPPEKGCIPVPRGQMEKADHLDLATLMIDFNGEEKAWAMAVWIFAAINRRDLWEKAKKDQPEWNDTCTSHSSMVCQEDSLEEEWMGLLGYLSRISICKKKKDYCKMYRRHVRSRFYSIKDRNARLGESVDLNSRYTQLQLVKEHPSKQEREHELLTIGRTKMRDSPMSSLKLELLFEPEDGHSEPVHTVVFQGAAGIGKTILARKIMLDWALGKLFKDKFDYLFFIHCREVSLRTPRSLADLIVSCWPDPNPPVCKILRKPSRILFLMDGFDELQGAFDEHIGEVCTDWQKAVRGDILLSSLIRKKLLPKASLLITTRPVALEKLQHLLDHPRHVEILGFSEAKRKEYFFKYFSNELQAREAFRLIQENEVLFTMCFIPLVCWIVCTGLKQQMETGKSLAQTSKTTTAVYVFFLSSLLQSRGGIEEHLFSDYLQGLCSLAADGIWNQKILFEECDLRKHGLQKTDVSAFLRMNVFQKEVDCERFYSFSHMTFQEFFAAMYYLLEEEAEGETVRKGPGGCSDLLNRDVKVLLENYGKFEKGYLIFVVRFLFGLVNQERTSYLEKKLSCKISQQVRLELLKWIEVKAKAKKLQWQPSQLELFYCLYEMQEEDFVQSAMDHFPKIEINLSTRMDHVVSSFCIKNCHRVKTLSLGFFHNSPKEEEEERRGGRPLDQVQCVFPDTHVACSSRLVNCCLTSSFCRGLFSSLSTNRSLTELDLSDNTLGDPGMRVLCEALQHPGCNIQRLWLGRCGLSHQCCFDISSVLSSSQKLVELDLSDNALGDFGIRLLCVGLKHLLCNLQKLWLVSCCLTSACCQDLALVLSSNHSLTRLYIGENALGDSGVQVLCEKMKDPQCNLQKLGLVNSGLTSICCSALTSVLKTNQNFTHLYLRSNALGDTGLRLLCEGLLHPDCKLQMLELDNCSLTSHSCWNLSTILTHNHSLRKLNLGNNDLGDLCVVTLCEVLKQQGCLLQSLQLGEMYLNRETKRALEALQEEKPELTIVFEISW
NLRP3, sequence (Q8R4B8 whole entry): as above

SMILES	NLRP3-mediated cellular secretion of IL-1β (NLRP3)	decrease of IL-1β levels in comparison to the LPS and nigericin control (NLRP3 inflammasome; 1 μM, p<0.05)	decrease of IL-1β levels in comparison to the LPS and nigericin control (NLRP3 inflammasome; 5 μM, p<0.01)	decrease of IL-1β levels in comparison to the LPS and nigericin control (NLRP3 inflammasome; 10 μM, p<0.01)	inhibition of NLRP3-mediated secretion of IL-1β (NLRP3 inflammasome; LPS-primed and nigericin-stimulated murine BMDM, 1 to 10 μM)	effect on levels of TNF-α (TNF-α)	viability of MRMECs (positive control) [1]
O=C(O)c1ccc(/C=C2/SC(=S)N(Cc3cccc(C(F)(F)F)c3)C2=O)cc1 [CY-09]	suppressed	~1.3 fold	~2 fold	~4 fold	dose-dependently inhibited	significantly decreased	–
CCO [70% ethanol, ethanol]	–	–	–	–	–	–	significantly decreased
